{"source": "patent US20230180804A1", "about": "“FLAVOR COMPOSITION, AND FOOD AND BEVERAGE” (TAKASAGO INTERNATIONAL CORPORATION, priority 2020, published 2023)", "key": {"olfactory receptor OR9Q2": {"target": "T1, olfactory receptor OR9Q2 (Homo sapiens, UniProt Q8NGE9)", "T1 construct": "20 N-terminal amino acid residues of bovine rhodopsin (Rho tag); expressed in transfected cells; host or cells: HEK293T", "T1 sequence (Q8NGE9 1-314)": "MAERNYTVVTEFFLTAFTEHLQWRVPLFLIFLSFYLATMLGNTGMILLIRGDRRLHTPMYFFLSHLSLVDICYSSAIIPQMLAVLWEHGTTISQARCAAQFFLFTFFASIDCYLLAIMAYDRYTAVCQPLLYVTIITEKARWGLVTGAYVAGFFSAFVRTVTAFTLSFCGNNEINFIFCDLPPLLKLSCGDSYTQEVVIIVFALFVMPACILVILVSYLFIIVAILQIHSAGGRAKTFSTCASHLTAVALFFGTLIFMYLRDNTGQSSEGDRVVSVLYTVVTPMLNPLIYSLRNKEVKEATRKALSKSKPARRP", "experiment": "OR9Q2 response inhibitory effect for p-cresol, luciferase reporter gene assay", "assay_type": "cell-based", "settings": "p-cresol 100 µM mixed with various concentrations of compound; cells expressing OR9Q2; ratio of Fold Increase value (FIGS. 1 to 11)"}, "[1]": {"experiment": "Sensory evaluation of p-cresol odor masking in p-cresol-containing citrus-flavored beverage", "settings": "for p-Cresol Odor Intensity: beverage with 50 ppb p-cresol, average score of 7 panelists, scale 0-4"}, "[2]": {"experiment": "Sensory evaluation of p-cresol odor masking in p-cresol-containing citrus-flavored confectionery (tablet)", "settings": "for p-Cresol Odor Intensity: tablet with 200 ppb p-cresol, average score of 6 panelists, scale 0-4", "procedure": "Lemon cold-pressed oil was added to the tablet having the composition presented in Table A at a concentration of 1 % by mass, and medium chain fatty acid triglycerides (MCT) was used to adjust p-cresol to a concentration of 0.1%, which was further added so as to reach 200 ppb in the citrus flavored confectionery. To this p-cresol-containing citrus-flavored confectionery, 1-oxacycloheptadecan-7-en-2-one was added at the concentrations presented in Table 12, and then tableting was performed to confirm the p-cresol odor intensity (masking effect) and the influence on the citrus flavor of each sample.\nSix skilled panelists were selected to perform the same sensory evaluation as in Example 1. The results are as in Table 12, presenting the average score of the evaluation results for each panelist."}, "[3]": {"experiment": "Sensory evaluation of p-cresol odor masking in p-cresol-containing grated raw ginger", "settings": "for p-Cresol Odor Intensity: grated ginger with 600 ppb p-cresol, average score of 9 panelists, scale 0-4", "procedure": "To commercially available grated raw ginger, p-cresol adjusted to a concentration of 0.1% with 95% ethanol was added to a concentration of 600 ppb in the ginger. To this p-cresol-containing ginger, 1-oxacycloheptadecan-8-en-2-one was added at the concentrations presented in Table 16 to confirm the p-cresol odor intensity (masking effect) and the influence on the ginger flavor of each sample.\nNine skilled panelists were selected to perform the same sensory evaluation as in Example 1. The results are as in Table 16, presenting the average score of the evaluation results for each panelist."}, "[4]": {"settings": "citrus-flavored beverage with 50 ppb p-cresol"}, "[5]": {"settings": "citrus-flavored confectionery (tablet) with 200 ppb p-cresol"}, "[6]": {"settings": "grated raw ginger with 600 ppb p-cresol"}}}
{"smiles": "O=C1CCCCCCCCCCCCCCO1", "note": "[Pentalide, pentalide]", "values": [{"measurement": "effect of suppressing the response of OR9Q2 to p-cresol", "setting": "olfactory receptor OR9Q2", "value": "suppressing the response of OR9Q2 to p-cresol in a concentration-dependent manner"}, {"measurement": "p-Cresol Odor Intensity", "setting": "[1]; 0.01 ppt added", "value": 3.6, "unit": "points"}, {"measurement": "p-Cresol Odor Intensity", "setting": "[1]; 0.1 ppt added", "value": 2.9, "unit": "points"}, {"measurement": "p-Cresol Odor Intensity", "setting": "[1]; 1 ppb added", "value": 1.4, "unit": "points"}, {"measurement": "p-Cresol Odor Intensity", "setting": "[1]; 1 ppt added", "value": 2.6, "unit": "points"}, {"measurement": "p-Cresol Odor Intensity", "setting": "[1]; 10 ppb added", "value": 1.0, "unit": "points"}, {"measurement": "p-Cresol Odor Intensity", "setting": "[1]; 10 ppt added", "value": 2.0, "unit": "points"}, {"measurement": "p-Cresol Odor Intensity", "setting": "[1]; 100 ppb added", "value": 0.6, "unit": "points"}, {"measurement": "p-Cresol Odor Intensity", "setting": "[1]; 100 ppt added", "value": 1.9, "unit": "points"}, {"measurement": "concentration at which the compound masks the p-cresol odor and does not affect the citrus flavor, lower limit", "setting": "[1]; [4]", "value": "≥ 0.1", "unit": "ppt"}, {"measurement": "concentration at which the compound masks the p-cresol odor and does not affect the citrus flavor, upper limit", "setting": "[1]; [4]", "value": "≤ 1", "unit": "ppb"}, {"measurement": "p-Cresol Odor Intensity", "setting": "[2]; 4 ppb added", "value": 2.3, "unit": "points"}, {"measurement": "p-Cresol Odor Intensity", "setting": "[2]; 40 ppb added", "value": 1.7, "unit": "points"}, {"measurement": "p-Cresol Odor Intensity", "setting": "[2]; 40 ppt added", "value": 2.8, "unit": "points"}, {"measurement": "p-Cresol Odor Intensity", "setting": "[2]; 400 ppb added", "value": 1.5, "unit": "points"}, {"measurement": "p-Cresol Odor Intensity", "setting": "[2]; 400 ppt added", "value": 2.7, "unit": "points"}, {"measurement": "concentration at which the compound masks the p-cresol odor and does not affect the citrus flavor, lower limit", "setting": "[2]; [5]", "value": "≥ 400", "unit": "ppt"}, {"measurement": "concentration at which the compound masks the p-cresol odor and does not affect the citrus flavor, upper limit", "setting": "[2]; [5]", "value": "≤ 400", "unit": "ppb"}, {"measurement": "p-Cresol Odor Intensity", "setting": "[3]; 1 ppb added", "value": 1.3, "unit": "points"}, {"measurement": "p-Cresol Odor Intensity", "setting": "[3]; 1 ppt added", "value": 3.3, "unit": "points"}, {"measurement": "p-Cresol Odor Intensity", "setting": "[3]; 10 ppb added", "value": 1.1, "unit": "points"}, {"measurement": "p-Cresol Odor Intensity", "setting": "[3]; 10 ppt added", "value": 2.7, "unit": "points"}, {"measurement": "p-Cresol Odor Intensity", "setting": "[3]; 100 ppt added", "value": 1.6, "unit": "points"}, {"measurement": "concentration at which the compound masks the p-cresol odor and does not affect the ginger flavor, lower limit", "setting": "[3]; [6]", "value": "≥ 10", "unit": "ppt"}, {"measurement": "concentration at which the compound masks the p-cresol odor and does not affect the ginger flavor, upper limit", "setting": "[3]; [6]", "value": "≤ 1", "unit": "ppb"}]}
